Measurements as given in ChEMBL document CHEMBL3351936, “Novel 25-hydroxyprotopanaxadiol derivatives incorporating chloroacetyl chloride and their anti-tumor evaluation” (Bioorg Med Chem Lett, 2014).

How the values were obtained:
[1] = Antiproliferative activity against human U87 cells assessed as cell-growth inhibition after 48 hrs by MTT assay; type: functional, cell-based, U-87MG ATCC; conditions: U-87 MG
HeLa = assay: Antiproliferative activity against human HeLa cells assessed as cell-growth inhibition after 48 hrs by MTT assay; type: functional, cell-based
[2] = Antiproliferative activity against human BGC823 cells assessed as cell-growth inhibition after 48 hrs by MTT assay; type: functional, cell-based; conditions: BGC-823, 48 h
LoVo = assay: Antiproliferative activity against human LoVo cells assessed as cell-growth inhibition after 48 hrs by MTT assay; type: functional, cell-based
[3] = Antiproliferative activity against human HCT116 cells assessed as cell-growth inhibition after 48 hrs by MTT assay; type: functional, cell-based; conditions: HCT-116, 48 h
MCF7 = assay: Antiproliferative activity against human MCF7 cells assessed as cell-growth inhibition after 48 hrs by MTT assay; type: functional, cell-based; conditions: MCF7, 48 h

Structure (SMILES) | IC50 [1] [µM] | IC50 (HeLa) [µM] | IC50 [2] [µM] | IC50 (LoVo) [µM] | IC50 [3] [µM] | IC50 (MCF7) [µM]
C=C(CCCC(C)(C)O)[C@H]1CC[C@]2(C)[C@@H]1[C@H](O)C[C@@H]1[C@@]3(C)CC[C@H](OC(=O)CCl)C(C)(C)[C@@H]3CC[C@]12C | 14.1 | 60.9 | 44.4 | 19.1 | 12.1 | 18.9
CC(C)(O)CCC[C@@](C)(O)[C@H]1CC[C@]2(C)[C@@H]1[C@H](OC(=O)CCl)C[C@@H]1[C@@]3(C)CC[C@H](O)C(C)(C)[C@@H]3CC[C@]12C | 7.3 | 37.2 | 30.9 | 31.1 | 32.1 | 26.2
C=C(CCCC(C)(C)OC(=O)CCl)[C@H]1CC[C@]2(C)[C@@H]1[C@H](O)C[C@@H]1[C@@]3(C)CC[C@H](O)C(C)(C)[C@@H]3CC[C@]12C | 10.1 | 39.7 | 27.1 | 40 | 42.8 | 10.8
CC(C)(O)CCC[C@@](C)(O)[C@H]1CC[C@]2(C)[C@@H]1[C@H](O)C[C@@H]1[C@@]3(C)CC[C@H](OC(=O)CCl)C(C)(C)[C@@H]3CC[C@]12C | 31.9 | 68.1 | 63.6 | 45.8 | 20.4 | 84.3
C/C(=C/CCC(C)(C)OC(=O)CCl)[C@H]1CC[C@]2(C)[C@@H]1[C@H](O)C[C@@H]1[C@@]3(C)CC[C@H](OC(=O)CCl)C(C)(C)[C@@H]3CC[C@]12C | 21.3 | 23.4 | 24.2 | 1.3 | 1.2 | 7.9
C=C(CCCC(C)(C)O)[C@H]1CC[C@]2(C)[C@@H]1[C@H](OC(=O)CCl)C[C@@H]1[C@@]3(C)CC[C@H](OC(=O)CCl)C(C)(C)[C@@H]3CC[C@]12C | 22.8 | 21.7 | 8.3 | 2.1 | 1.6 | 1.7
CC(C)(O)CCC[C@@](C)(O)[C@H]1CC[C@]2(C)[C@@H]1[C@H](OC(=O)CCl)C[C@@H]1[C@@]3(C)CC[C@H](OC(=O)CCl)C(C)(C)[C@@H]3CC[C@]12C | 88.1 | 68.9 | 61.8 | 41 | 45.6 | 38.1
CC(C)(CCC[C@@](C)(O)[C@H]1CC[C@]2(C)[C@@H]1[C@H](O)C[C@@H]1[C@@]3(C)CC[C@H](OC(=O)CCl)C(C)(C)[C@@H]3CC[C@]12C)OC(=O)CCl | 40.1 | 27.1 | 6.9 | 58.1 | 38.2 | 3.7
O=c1[nH]cc(F)c(=O)[nH]1 [FLUOROURACIL] | 38.2 | 18.1 | 35.6 | 12.7 | 36.2 | –
CC(=O)O[C@H]1CC[C@]2(C)[C@H]3C[C@@H](O)[C@@H]4[C@@H]([C@](C)(O)CCCC(C)(C)O)CC[C@@]4(C)[C@]3(C)CC[C@H]2C1(C)C | 32.6 | 30.2 | 34.6 | 44.9 | 20.5 | 19.5
CC(C)(CCC[C@@](C)(OC(=O)CCl)[C@H]1CC[C@]2(C)[C@@H]1[C@H](O)C[C@@H]1[C@@]3(C)CC[C@H](O)C(C)(C)[C@@H]3CC[C@]12C)OC(=O)CCl | 19.2 | 52.6 | 32.4 | 61.2 | 56.1 | 12.1
CC(C)(O)CCC[C@@](C)(O)[C@H]1CC[C@]2(C)[C@@H]1[C@H](O)C[C@@H]1[C@@]3(C)CC[C@H](O)C(C)(C)[C@@H]3CC[C@]12C | 27.5 | 48.6 | 44.2 | 46.7 | 33.3 | 49.6
C/C(=C/CCC(C)(C)O)[C@H]1CC[C@]2(C)[C@@H]1[C@H](OC(=O)CCl)C[C@@H]1[C@@]3(C)CC[C@H](O)C(C)(C)[C@@H]3CC[C@]12C | 34.6 | 44.4 | 42.3 | 31 | 8.6 | 37.8
C=C(CCCC(C)(C)O)[C@H]1CC[C@]2(C)[C@@H]1[C@H](OC(=O)CCl)C[C@@H]1[C@@]3(C)CC[C@H](O)C(C)(C)[C@@H]3CC[C@]12C | 24.6 | 56.6 | 45.2 | 23.5 | 22.5 | 9.8
C/C(=C/CCC(C)(C)O)[C@H]1CC[C@]2(C)[C@@H]1[C@H](OC(=O)CCl)C[C@@H]1[C@@]3(C)CC[C@H](OC(=O)CCl)C(C)(C)[C@@H]3CC[C@]12C | 16.6 | 37.6 | 7.1 | 1.7 | 2.6 | 1.6
CC(=O)O[C@H]1CC[C@]2(C)[C@H]3C[C@@H](OC(C)=O)[C@@H]4[C@@H]([C@](C)(O)CCCC(C)(C)O)CC[C@@]4(C)[C@]3(C)CC[C@H]2C1(C)C | 41.2 | 28.9 | 42.3 | 35.6 | 17.1 | 23.5
CC(=O)O[C@@H]1C[C@@H]2[C@@]3(C)CC[C@H](O)C(C)(C)[C@@H]3CC[C@@]2(C)[C@]2(C)CC[C@H]([C@](C)(O)CCCC(C)(C)O)[C@@H]12 | 34.4 | 39.9 | 28.7 | 36.7 | 18.9 | 15.6
